These results are taken from US12667545B2, “Lyophilized compositions of phenobarbital sodium salt” (Nivagen Pharmaceuticals, Inc., priority 2019, dated 2026).

For data set [1] the following is noted: cited from earlier work.
Data set [2] is described as follows: X-Ray Powder Diffraction (XRPD). It is filed as physicochemical. Conditions: FIGS. 5A-5D. How it is done:
X-Ray Powder Diffraction. With reference to FIGS. 5A-5D, XRPD was performed using the Rigaku Smart-Lab X-ray diffraction system configured for reflection Bragg-Brentano geometry using a line source X-ray beam. The X-ray source is a Cu Long Fine Focus tube that was operated at 40 kV and 44 mA. That source provides an incident beam profile at the sample that changes from a narrow line at high angles to a broad rectangle at low angles. Beam conditioning slits were used on the line X-ray source to ensure that the maximum beam size is less than 10 mm both along the line and normal to the line. The Bragg-Brentano geometry is a para-focusing geometry controlled by passive divergence and receiving slits with the sample itself acting as the focusing component for the optics. The inherent resolution of Bragg-Brentano geometry is governed in part by the diffractometer radius and the width of the receiving slit used. Typically, the Rigaku Smart-Lab is operated to give peak widths of 0.1° 2θ or less. The axial divergence of the X-ray beam is controlled by 5.0-degree Soller slits in both the incident and diffracted beam paths. […] The samples were analyzed from 2 to 40° 2θ using a continuous scan of 6° 2θ per minute with an effective step size of 0.02° 2θ.

`CCC(C(=O)NC(N)=O)c1ccccc1` (stereo not drawn) [Pheneturide, phenylethylacetylurea]: in data set [1] (Nayyar et al., 2012), the liver enzyme induction result was “potent liver enzyme inducer”. In data set [1] (patients treated with Pheneturide), the “serum calcium and folate” value was “low levels”.
Take `CCC1(c2ccccc2)C(=O)N=C([O-])NC1=O.[Na+]` (stereo not drawn) [USP grade P API, sodium 5-ethyl-4,6-dioxo-5-phenyl-1H-pyrimidin-2-olate]: the “solid form by XRPD” value in data set [2] is recorded as “polymorphous”.
